Measurements as given in patent US5436273A, “Psychoactive propargylamine derivatives used in the treatment of anxiety, psychotic states or aggression” (Lowchol Scientific, Inc., priority 1993, dated 1995).
Where two headings read alike, the source gives them in different places.

Assays:
in vivo = settings: mouse, ip
Acute toxicity test = settings: mouse, in vivo
Protocol: CD #1 mice (20-30 g) are used for this test. The animals are individualy housed in glass beakers for a 2 hour period of acclimatization without food and water.

[1] = system: isolation induced aggressive behavior in mice; test: Inhibition of isolation induced fighting behavior in mice; assay type: in vivo, CD #1 mice; settings: for ED50: Mus musculus, ip, 0.5 h, read-out: ED50 (dose that suppressed aggressive behavior in 50% of the animals)
Protocol: 1. Inhibition of Isolation Induced Fighting Behavior in Mice
After this period of confinement, the animals usually develop a marked intraspecific aggressive behavior when they are placed in the same cage.
The compound to be studied is administered i.p. to the selected groups (N=8 pairs/dose×5 doses) and the aggressive behavior is tested again 30 minutes later. […] A one week washout period is allowed between treatments.

[2] = system: exploratory behavior in rats; test: Inhibition of exploratory behavior in rats (hole poking); assay type: in vivo, Sprague-Dawley rats; settings: for ED50: Rattus norvegicus, ip, 0.5 h, read-out: dose required to diminish by 50% the exploratory behavior
Protocol: 8. Inhibition of Exploratory Behavior in Rats (Hole Poking).
This test is done with Sprague-Dawley male rats of about 300 g. Activity is evaluated with a […] XYZ activity cage connected to a […] […] DCM-4. A perforated plate (16 holes of 2-5 cm diameter) is placed in the enclosure and on the activity case to register vertical activity. The number of times the rat placed his snout into the holes during a 10 minute period is recorded. The test was started 30 minutes after the interperitoneal injection of the compound to be studied.
The results which are reported in Table 8 are expressed in terms of the dose required to diminish by 50% the exploratory behavior, with reference to animals injected with the carrier only. Diazepam and buspirone are used as standards.

[3] = Rotarod neurotoxicity test in mice; settings: mouse
[4] = Effect on body temperature, buspirone in rats; assay type: in vivo, Sprague Dawley rats
Protocol: Female CD #1 mice (20-30 g) are used. Rectal temperature is recorded before and one hour after s.c. administration of the compound to be studied (N=8/doses×4 doses). The solvent used is sterile water for intravenous injection.
The results which are reported in Table 9 are expressed in terms of the variation of temperature for different doses. Buspirone was tested on Sprague Dawley rats.

[5] = system: spontaneous motor activity in rats; test: Inhibition of spontaneous motor activity in rats; assay type: in vivo, Sprague Dawley rats; settings: for ED50: Rattus norvegicus, ip, 0.5 h, i.p., 30 minutes
Protocol: (§1) Two animals are studied simultaneously, one treated and one control. After a 2 hour period of acclimatization to the room, a first activity count of 10 minutes duration is perfomed. The compound to be studied is then administered i.p. and the spontaneous activity is reevaluated 30 minutes later over a period of 10 minutes.
5. Inhibition of Spontaneous Motor Activity in Rats
The method is the same as described above for mice, except that because of the size of the animals (Sprague Dawley rats; 300 g), the test and control animals are not evaluated simultaneously, but alternatively.

[6] = system: righting reflex / ethanol narcosis in mice; test: Potentiation of sleeping time induced by ethanol in mice; assay type: in vivo, CD #1 mice
Protocol: 7. Potentiation of Sleeping Time Induced by Ethanol in Mice
This test was done with male CD #1 mice of 25-35 g. The mice are injected intraperitoneally (8 mice per dose). A subhypnotic dose of ethanol (12 ml/kg of 50% ethanol solution) is administered orally 30 minutes later.
The loss of the righting reflex is evaluated, for each animal, 30 minutes after the administration of the alcohol. It is considered that there is a potentialization of ethanol narcosis if the righting time exceeded 30 seconds.
The results which are reported in Table 7 are expressed in terms of the percentage of animals displaying a loss of the righting reflex versus the administered dose. Chlorpromazine (5 mg/kg i.p.) is used as a standard.

[7] = system: spontaneous motor activity in mice; test: Inhibition of spontaneous motor activity in mice; assay type: in vivo, CD #1 mice; settings: for ED50: Mus musculus, ip, 0.5 h
Protocol: 4. Inhibition of Spontaneous Motor Activity in Mice
Female CD #1 mice (20-30 g) are used for this experiment. The effect of the compound to be studied on spontaneous activity was evaluated by an automated […] XYZ system. This system allows the simultaneous quantification of the following parameters:
number of stereotypic movements;
number of vertical movements;
number of clockwise revolutions; and
number of counterclockwise revolutions.
as §1

[8] = system: conditioned avoidance response in rats; test: Inhibition of conditioned avoidance response in rats; assay type: in vivo, Sprague Dawley rats
Excerpt: 6. Inhibition of Conditioned Avoidance Response in Rats
Male Sprague Dawley rats (200-250 g) are trained to avoid an electric foot shock, by continuously changing room with the appropriate visuals and auditory signals, in an automatic 2-way conditioned avoidance apparatus (Coulbourn Instrument Co.). Only the animals that perform at least a 70% avoidance (3 successive training sessions) are kept for the experiment.
The day of the experiment, the selected animals are submitted to a pre-treatment control session. The compound to be studied is then administered i.p. and the animals are placed back in the apparatus for evaluation 30 minutes later. Diazepam was used as a standard.

[9] = i.p., 30 minutes after administration, probit analysis

SMILES: CCN(CC)C(C)C#Cc1ccccc1 (stereo not drawn) [Compound 33]
- TD50 at 0.5 h (in vivo): ≥ 88 mg/kg
- LD50 (Acute toxicity test; ip): 88 mg/kg
- ED50 [1, 9]: 44 mg/kg

SMILES: O=C1CC2(CCCC2)CC(=O)N1CCCCN1CCN(c2ncccn2)CC1 [Buspirone, reference compound]
- ED50 ([2]; i.p., 30 minutes, rats): 2.8 ± 0.6 mg/kg
- inhibition of exploratory behavior (in words) ([2]; rats): more potent, in this respect, than diazepam but they rapidly lose their ability to produce this effect after the first administration
- TD50 ([3]; rotarod, po): 135 mg/kg
- Temp. Difference from Control ([4]; dose 10, Sprague Dawley rats): -2.7
- Temp. Difference from Control ([4]; dose 30, Sprague Dawley rats): -3.6
- Temp. Difference from Control ([4]; dose 100, Sprague Dawley rats): -5.8
- inhibition of spontaneous motor activity (in words) [5]: inhibit spontaneous motor activity in mice and rats
- ED50 ([5]; read-out: ED50, clockwise revolutions): 2.3 ± 0.9 mg/kg
- ED50 ([5]; read-out: ED50, counterclockwise revolutions): 2.9 ± 0.7 mg/kg
- ED50 ([5]; read-out: ED50, horizontal activity): 2.7 ± 0.8 mg/kg
- ED50 ([5]; read-out: ED50, movement time): 3.2 ± 0.6 mg/kg
- ED50 ([5]; read-out: ED50, number of movements): 5.3 ± 0.9 mg/kg
- ED50 ([5]; read-out: ED50, number of stereotypic movements): 3.1 ± 0.8 mg/kg
- ED50 ([5]; read-out: ED50, stereotypy time): 1.7 ± 0.6 mg/kg
- ED50 ([5]; read-out: ED50, total distance): 2.8 ± 0.7 mg/kg
- potentiation of ethanol (in words) ([6]; subhypnotic dose of ethanol, mice): more effective than compound N^o 3
- inhibition of spontaneous motor activity (in words) [7]: inhibit spontaneous motor activity in mice and rats
- ED50 ([7]; i.p., 30 minutes, read-out: ED50, clockwise revolutions): 17.9 ± 6.9 mg/kg
- ED50 ([7]; i.p., 30 minutes, read-out: ED50, horizontal activity): 20.5 ± 16.7 mg/kg
- ED50 ([7]; i.p., 30 minutes, read-out: ED50, movement time): 19.9 ± 8.9 mg/kg
- ED50 ([7]; i.p., 30 minutes, read-out: ED50, stereotypy time): 22.7 ± 13.7 mg/kg
- ED50 ([7]; i.p., 30 minutes, read-out: ED50, total distance): 22.6 ± 15.8 mg/kg
- ED50, counterclockwise revolutions ([7]; i.p., 30 minutes): no dose-response
- ED50, number of movements ([7]; i.p., 30 minutes): no dose-response
- ED50, number of stereotypic movements ([7]; i.p., 30 minutes): no dose-response
- ED50, vertical activity ([7]; i.p., 30 minutes): no dose-response
- ED50, vertical movements ([7]; i.p., 30 minutes): no dose-response
- ED50, vertical time ([7]; i.p., 30 minutes): no dose-response
- LD50 (Acute toxicity test; po, read-out: LD50): 622 mg/kg
- inhibition of conditioned avoidance response (in words) ([8]; rats): inhibit conditioned avoidance in rats, but are less active than diazepam

SMILES: CN(CC#Cc1cccc(C(F)(F)F)c1)Cc1ccccc1 [Compound 5]
- TD50 at 0.5 h (in vivo): 334 mg/kg
- LD50 (Acute toxicity test; ip): 416 mg/kg
- ED50 [1, 9]: 28 mg/kg

SMILES: C#CC(C)(C)N [Compound 36]
- TD50 at 0.5 h (in vivo): 391 mg/kg
- LD50 (Acute toxicity test; ip): 779 mg/kg
- ED50 [1, 9]: 176 mg/kg

SMILES: CCNCC#Cc1ccccc1 [Compound 27]
- TD50 at 0.5 h (in vivo): 88 mg/kg
- LD50 (Acute toxicity test; ip): 98 mg/kg
- ED50 [1, 9]: 17 mg/kg

SMILES: CN(C)CCCN1c2ccccc2Sc2ccc(Cl)cc21 [Chlorpromazine, reference compound]
- percentage of animals displaying a loss of the righting reflex ([6]; 5 mg/kg i.p., with ethanol): 100%

SMILES: CN1C(=O)CN=C(c2ccccc2)c2cc(Cl)ccc21 [Diazepam]
- ED50 [2]: 14.2 ± 5 mg/kg
- conditioned avoidance response ([8]; 5 mg/kg i.p.): 57.5%

SMILES: CC(N)C#Cc1ccc([N+](=O)[O-])cc1 (stereo not drawn) [Compound 20]
- TD50 at 0.5 h (in vivo): ~120 mg/kg
- LD50 (Acute toxicity test; ip): 152 mg/kg
- ED50 [1, 9]: 10 mg/kg

SMILES: CCNC(C)C#Cc1ccccc1 (stereo not drawn) [Compound 32]
- TD50 at 0.5 h ([3]; in vivo, ip): ≥ 120 mg/kg
- LD50 (Acute toxicity test; ip, probit analysis): 120 mg/kg
- ED50 [1]: 23 mg/kg

SMILES: C#CC(C)N(C)C (stereo not drawn) [Compound 35]
- ED50 [1, 9]: 92 mg/kg

SMILES: NCC#Cc1ccccc1 [Compound 26]
- LD50 (Acute toxicity test; ip, probit analysis): ≥ 100 mg/kg

SMILES: CC(C)NC(C)C#Cc1ccccc1 (stereo not drawn) [Compound 13]
- LD50 (Acute toxicity test; ip, probit analysis): 120 mg/kg
- ED50 [1, 9]: 27 mg/kg

SMILES: CC(N)C#Cc1ccc(Cl)cc1 (stereo not drawn) [Compound 1, 2-Amino-4-(p-chlorophenyl)-3-butyne]
- TD50 at 0.5 h (in vivo): ~65 mg/kg
- LD50 (Acute toxicity test; ip, probit analysis): 130 mg/kg
- ED50 [1, 9]: 12 mg/kg
- inhibition of aggressive behavior (in words) ([1]; i.p., mice): particularly potent inhibitors

SMILES: CC(N)C#Cc1ccc(C(=O)N(C)C)cc1 (stereo not drawn) [Compound 21]
- LD50 (Acute toxicity test; ip, probit analysis): < 100 mg/kg

SMILES: C(#Cc1ccccc1)CN1CCCCC1 [Compound 11]
- TD50 at 0.5 h (in vivo): 132 mg/kg
- LD50 (Acute toxicity test; ip): 188 mg/kg
- ED50 [1, 9]: 27 mg/kg
